Test results from the supplement of paper PMC10307832.

Key:
Assay in all cases: relative viability (nuclei count vs DMSO), 5 days (fraction); higher = more cells survive
[1] = system: NCI-H2023
Procedure, shortened: (§1)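 After 5 days of treatment, lung cancer cells in 1536-well plates were fixed and stained in a single step (final 0.05% Triton X-100, 1% formaldehyde, 1 ug/ml Hoechst) and their nuclei counted on 4× images. Treatment had been applied by pin tool the day after seeding as one drug alone or as a fixed anchor-drug dose with five library-drug doses (not always all listed) in √10 steps. Relative viability is the nuclei count of treated wells divided by that of vehicle wells, and values are medians of duplicate plates.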

[2] = system: COR-L23
Procedure, shortened: as §1

[3] = system: A-427
Procedure, shortened: as §1

[4] = system: SK-MES-1
Procedure, shortened: as §1

[5] = system: NCI-H1651
Procedure, shortened: as §1

[6] = system: NCI-H1395
Procedure, shortened: as §1

[7] = system: COR-L 105
Procedure, shortened: as §1

[8] = system: NCI-H650
Procedure, shortened: as §1

[9] = system: CAL-12T
Procedure, shortened: as §1

[10] = system: NCI-H2085
Procedure, shortened: as §1

[11] = system: HOP-62
Procedure, shortened: as §1

[12] = system: LXF-289
Procedure, shortened: as §1

[13] = system: NCI-H1563
Procedure, shortened: as §1

[14] = system: NCI-H2170
Procedure, shortened: as §1

[15] = system: NCI-H1975
Procedure, shortened: as §1

[16] = system: NCI-H596
Procedure, shortened: as §1

[17] = system: RERF-LC-KJ
Procedure, shortened: as §1

[18] = system: NCI-H3122
Procedure, shortened: as §1

[19] = system: NCI-H647
Procedure, shortened: as §1

[20] = system: NCI-H2087
Procedure, shortened: as §1

Compound: COCC1(CO)C(=O)C2CCN1CC2 (centres undefined) [PRIMA-1MET] + CS(=O)(=O)CCNCc1ccc(-c2ccc3ncnc(Nc4ccc(OCc5cccc(F)c5)c(Cl)c4)c3c2)o1 [Lapatinib] (partner 2 µM)
- relative viability ([1]; first compound 0.2 µM): 0.991
- relative viability ([1]; first compound 0.6325 µM): 0.26
- relative viability ([1]; first compound 2 µM): 0.639
- relative viability ([1]; first compound 6.325 µM): 0.893
- relative viability ([1]; first compound 20 µM): 0.841
- relative viability ([2]; first compound 0.2 µM): 1.11
- relative viability ([2]; first compound 0.6325 µM): 0.922
- relative viability ([2]; first compound 2 µM): 0.941
- relative viability ([2]; first compound 6.325 µM): 1.17
- relative viability ([2]; first compound 20 µM): 0.0199
- relative viability ([3]; first compound 0.2 µM): 1.08
- relative viability ([3]; first compound 0.6325 µM): 0.849
- relative viability ([3]; first compound 2 µM): 0.895
- relative viability ([3]; first compound 6.325 µM): 1.02
- relative viability ([3]; first compound 20 µM): 0.982
- relative viability ([4]; first compound 0.2 µM): 0.571
- relative viability ([4]; first compound 0.6325 µM): 0.365
- relative viability ([4]; first compound 2 µM): 0.448
- relative viability ([4]; first compound 6.325 µM): 0.477
- relative viability ([4]; first compound 20 µM): 0.516
- relative viability ([5]; first compound 0.2 µM): 0.917
- relative viability ([5]; first compound 0.6325 µM): 0.731
- relative viability ([5]; first compound 2 µM): 0.659
- relative viability ([5]; first compound 6.325 µM): 0.839
- relative viability ([5]; first compound 20 µM): 0.736
- relative viability ([6]; first compound 0.2 µM): 0.922
- relative viability ([6]; first compound 0.6325 µM): 0.701
- relative viability ([6]; first compound 2 µM): 1.09
- relative viability ([6]; first compound 6.325 µM): 0.89
- relative viability ([6]; first compound 20 µM): 0.908
- relative viability ([7]; first compound 0.2 µM): 0.45
- relative viability ([7]; first compound 0.6325 µM): 0.33
- relative viability ([7]; first compound 2 µM): 0.312
- relative viability ([7]; first compound 6.325 µM): 0.419
- relative viability ([7]; first compound 20 µM): 0.22
- relative viability ([8]; first compound 0.2 µM): 1.24
- relative viability ([8]; first compound 2 µM): 0.914
- relative viability ([8]; first compound 6.325 µM): 0.871
- relative viability ([8]; first compound 20 µM): 0.0916
- relative viability ([9]; first compound 0.2 µM): 0.704
- relative viability ([9]; first compound 0.6325 µM): 0.736
- relative viability ([9]; first compound 2 µM): 0.571
- relative viability ([9]; first compound 6.325 µM): 0.677
- relative viability ([9]; first compound 20 µM): 0.388
- relative viability ([10]; first compound 0.2 µM): 0.814
- relative viability ([10]; first compound 0.6325 µM): 0.591
- relative viability ([10]; first compound 2 µM): 0.523
- relative viability ([10]; first compound 6.325 µM): 0.54
- relative viability ([10]; first compound 20 µM): 0.493
- relative viability ([11]; first compound 0.2 µM): 1.17
- relative viability ([11]; first compound 0.6325 µM): 0.911
- relative viability ([11]; first compound 2 µM): 0.887
- relative viability ([11]; first compound 6.325 µM): 1.06
- relative viability ([11]; first compound 20 µM): 0.853
- relative viability ([12]; first compound 0.2 µM): 0.878
- relative viability ([12]; first compound 0.6325 µM): 0.879
- relative viability ([12]; first compound 2 µM): 0.979
- relative viability ([12]; first compound 6.325 µM): 0.923
- relative viability ([12]; first compound 20 µM): 0.836
- relative viability ([13]; first compound 0.2 µM): 0.991
- relative viability ([13]; first compound 0.6325 µM): 0.988
- relative viability ([13]; first compound 2 µM): 0.606
- relative viability ([13]; first compound 6.325 µM): 1.09
- relative viability ([13]; first compound 20 µM): 0.455
- relative viability ([14]; first compound 0.2 µM): 0.263
- relative viability ([14]; first compound 0.6325 µM): 0.236
- relative viability ([14]; first compound 2 µM): 0.237
- relative viability ([14]; first compound 6.325 µM): 0.276
- relative viability ([14]; first compound 20 µM): 0.273
- relative viability ([15]; first compound 0.2 µM): 0.988
- relative viability ([15]; first compound 0.6325 µM): 0.786
- relative viability ([15]; first compound 2 µM): 0.774
- relative viability ([15]; first compound 6.325 µM): 0.947
- relative viability ([15]; first compound 20 µM): 0.816
- relative viability ([16]; first compound 0.2 µM): 1.14
- relative viability ([16]; first compound 0.6325 µM): 1.01
- relative viability ([16]; first compound 2 µM): 0.77
- relative viability ([16]; first compound 6.325 µM): 1.22
- relative viability ([16]; first compound 20 µM): 1.02
- relative viability ([17]; first compound 0.2 µM): 1.01
- relative viability ([17]; first compound 0.6325 µM): 0.86
- relative viability ([17]; first compound 2 µM): 0.874
- relative viability ([17]; first compound 6.325 µM): 0.928
- relative viability ([17]; first compound 20 µM): 0.883
- relative viability ([18]; first compound 0.2 µM): 0.711
- relative viability ([18]; first compound 0.6325 µM): 1.04
- relative viability ([18]; first compound 2 µM): 1.03
- relative viability ([18]; first compound 6.325 µM): 0.996
- relative viability ([18]; first compound 20 µM): 0.954
- relative viability ([19]; first compound 0.2 µM): 1.29
- relative viability ([19]; first compound 0.6325 µM): 1.09
- relative viability ([19]; first compound 2 µM): 0.759
- relative viability ([19]; first compound 6.325 µM): 1.29
- relative viability ([19]; first compound 20 µM): 0.783
- relative viability ([20]; first compound 0.2 µM): 0.848
- relative viability ([20]; first compound 0.6325 µM): 0.813
- relative viability ([20]; first compound 2 µM): 0.848
- relative viability ([20]; first compound 6.325 µM): 1.22
- relative viability ([20]; first compound 20 µM): 0.919
